For one data set, the system named is Raw 264.7 cell line. In words: NO scavenging activity in LPS-treated immune cells (Griess reagent). To be noted: Mus musculus, RAW264.7, Raw 264.7, LPS 500 ng/mL, 24 hours, read-out: NO Scavenging Activity (%) (Mean±SD). It counts as cell-based.
A further data set relates to splenocytes. In words: Inhibitory activity on cell proliferation in splenocytes (CCK-8 analysis). It counts as cell-based, C57BL/6 mouse. Particulars: Mus musculus, Splenocyte, Concanavalin A 5 µg/mL, 72 hours, read-out: Inhibitory Activity on Cell Proliferation (%) (Mean±SD).
A further data set addresses T1, JAK 3 (Homo sapiens, UniProt P52333).
T1 construct: purchased Eurofins Scientific (assay service)
T1 sequence (P52333 1-1124): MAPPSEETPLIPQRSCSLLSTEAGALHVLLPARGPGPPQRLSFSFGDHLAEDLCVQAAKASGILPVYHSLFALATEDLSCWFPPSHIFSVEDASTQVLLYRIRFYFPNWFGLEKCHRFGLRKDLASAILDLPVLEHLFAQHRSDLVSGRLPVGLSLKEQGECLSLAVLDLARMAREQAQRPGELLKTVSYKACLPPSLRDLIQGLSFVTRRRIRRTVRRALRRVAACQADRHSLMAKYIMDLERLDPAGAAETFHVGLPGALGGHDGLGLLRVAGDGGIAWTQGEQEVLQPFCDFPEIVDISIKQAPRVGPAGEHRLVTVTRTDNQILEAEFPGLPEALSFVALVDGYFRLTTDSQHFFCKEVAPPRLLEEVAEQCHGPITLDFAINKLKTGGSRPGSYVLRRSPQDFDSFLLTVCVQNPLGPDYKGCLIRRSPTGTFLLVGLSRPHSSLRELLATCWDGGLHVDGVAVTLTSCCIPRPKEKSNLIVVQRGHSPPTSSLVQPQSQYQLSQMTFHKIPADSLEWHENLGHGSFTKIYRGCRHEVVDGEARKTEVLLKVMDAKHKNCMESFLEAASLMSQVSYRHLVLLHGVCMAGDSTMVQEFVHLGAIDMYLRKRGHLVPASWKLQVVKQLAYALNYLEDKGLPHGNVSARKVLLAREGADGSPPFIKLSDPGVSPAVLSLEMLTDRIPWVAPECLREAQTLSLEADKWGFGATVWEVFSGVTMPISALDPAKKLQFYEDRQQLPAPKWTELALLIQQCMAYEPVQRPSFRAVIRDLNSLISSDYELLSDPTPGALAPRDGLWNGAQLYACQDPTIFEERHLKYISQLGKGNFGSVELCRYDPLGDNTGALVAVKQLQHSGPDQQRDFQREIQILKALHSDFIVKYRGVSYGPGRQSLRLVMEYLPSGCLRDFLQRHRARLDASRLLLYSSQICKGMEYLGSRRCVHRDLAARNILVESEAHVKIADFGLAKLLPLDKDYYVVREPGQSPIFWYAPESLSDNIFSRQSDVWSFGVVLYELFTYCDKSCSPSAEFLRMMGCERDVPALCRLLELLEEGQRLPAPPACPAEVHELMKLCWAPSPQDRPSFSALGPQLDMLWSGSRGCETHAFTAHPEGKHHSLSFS
The data set is described as follows: JAK Human TK kinase enzymatic radiometric assay (Eurofins), JAK 3. It counts as biochemical. Further details: unit not given here. Particulars: value close to 100 indicates low JAK activity of the compound. The text has this: For the compounds of the Examples, JAK activity of each of the compounds was verified using the JAK Human TK Kinase Enzymatic Radiometric Kinase Profiler Assay service provided by Eurofins Scientific.
The activity was verified after inducing a reaction at the JAK 1, 2 and 3 active sites using radioactively labeled ATP.

Data set [1] in a line: Efficacy on collagen-induced rheumatoid arthritis (arthritis score). It counts as in vivo, DBA/1 male mice. The method, then:
The experimental animals were 30 8-week-old DBA/1 male mice. […] The number of normal mice was set to five in order to minimize the number of experimental animals. The group administered with Compound (1) consisted of 5 to 6 mice, a minimal number required to obtain statistically meaningful data given the limited amount of the drug.
(§1) In order to establish a rheumatoid arthritis model, 100 µL of a mixture solution in which 2 mg/mL of chick type II collagen and 1 mg/mL of Complete Freund's Adjuvant (CFA) were mixed in a ratio of 1:1 was administered intradermally to each of the mouse tails. After 19 days, 100 µL of an emulsion in which 2 mg/mL of chick type II collagen and Incomplete Freund's Adjuvant (IFA) were mixed in a ratio of 1:1 was administered intradermally to each of the mouse tails.
The test substances of Table 23 were administered orally every day according to the drug dosing period and dosing frequency. As for the rheumatoid arthritis score (arthritis score), the score of each of the four paws was quantified according to the criteria shown in the following Table 24, and the individual scores were summed to generate the final score.
The experimental animals were 31 8-week-old DBA/1 male mice. […] The number of normal mice was set to five in order to minimize the number of experimental animals. The group administered with Compound (11) consisted of 5 mice, a minimal number required to obtain statistically meaningful data given the limited amount of the drug. Each of the remaining groups consisted of 7 mice, with two extra mice added to account for experimental error.
as §1
Oral administration was conducted daily according to the dose, dosing frequency and dosing period of Table 25. Based on the criteria shown in Table 24, rheumatoid arthritis score for the four paws were quantified and summed to generate the score.

The next data set has as its target JAK 1 (Homo sapiens, UniProt P23458). In words: JAK Human TK kinase enzymatic radiometric assay (Eurofins), JAK 1. To be noted: value close to 100 indicates low JAK activity of the compound.
Data set [2] in a line: Hematological toxicity evaluation after single oral administration (routine blood test). To be noted: single oral dose 200 mg/kg and 800 mg/kg, compared with the normal group.

Chain of JAK 1 (P23458 whole entry): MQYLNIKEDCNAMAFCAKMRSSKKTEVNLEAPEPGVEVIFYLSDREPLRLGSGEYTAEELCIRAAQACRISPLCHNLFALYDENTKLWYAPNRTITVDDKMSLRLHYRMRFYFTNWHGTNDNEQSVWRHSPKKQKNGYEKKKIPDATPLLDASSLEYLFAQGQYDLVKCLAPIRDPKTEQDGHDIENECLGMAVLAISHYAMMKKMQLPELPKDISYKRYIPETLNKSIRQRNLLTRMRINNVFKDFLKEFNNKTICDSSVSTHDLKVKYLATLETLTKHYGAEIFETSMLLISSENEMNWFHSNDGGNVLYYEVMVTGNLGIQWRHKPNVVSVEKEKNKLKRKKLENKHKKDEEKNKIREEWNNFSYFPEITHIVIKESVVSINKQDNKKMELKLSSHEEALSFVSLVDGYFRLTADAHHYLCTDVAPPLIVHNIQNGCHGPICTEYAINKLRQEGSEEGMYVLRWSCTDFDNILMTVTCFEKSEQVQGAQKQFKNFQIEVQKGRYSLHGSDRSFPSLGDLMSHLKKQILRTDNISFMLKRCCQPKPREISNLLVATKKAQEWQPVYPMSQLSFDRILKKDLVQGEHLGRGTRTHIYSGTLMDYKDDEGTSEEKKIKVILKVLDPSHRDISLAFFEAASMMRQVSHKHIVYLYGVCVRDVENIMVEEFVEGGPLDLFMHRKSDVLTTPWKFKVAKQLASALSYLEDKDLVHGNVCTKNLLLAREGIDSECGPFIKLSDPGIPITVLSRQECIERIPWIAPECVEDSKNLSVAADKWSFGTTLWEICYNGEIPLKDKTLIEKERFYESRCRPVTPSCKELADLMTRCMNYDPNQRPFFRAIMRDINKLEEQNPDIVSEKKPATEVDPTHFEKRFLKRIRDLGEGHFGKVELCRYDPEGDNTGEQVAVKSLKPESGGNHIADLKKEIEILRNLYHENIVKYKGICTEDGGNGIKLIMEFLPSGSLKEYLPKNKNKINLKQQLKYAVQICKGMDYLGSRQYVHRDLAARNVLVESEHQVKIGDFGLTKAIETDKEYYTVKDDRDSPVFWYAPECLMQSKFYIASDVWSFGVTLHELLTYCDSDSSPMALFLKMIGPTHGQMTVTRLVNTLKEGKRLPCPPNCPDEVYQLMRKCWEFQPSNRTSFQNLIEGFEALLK

Consider `C[C@@H]1CCN(C(=O)CC#N)C[C@@H]1N(C)c1ncnc2c1ccn2C(=O)Nc1ccccc1N` [Example 1, N-(2-aminophenyl)-4-(((3R,4R)-1-(2-cyanoacetyl)-4-methylpiperidin-3-yl) (methyl)amino)-7H-pyrrolo[2,3-d]pyrimidine-7-carboxamide], for which the activity at 10 µM with Raw 264.7 cell line stood at 77.4 ± 0.52%. Moreover, the inhibition at 10 µM in the data set on splenocytes was determined as 55 ± 8.48%. The “JAK 3 Activity” value on JAK 3 (0.1 nM) was 94; on JAK 3 (1 nM), 95; on JAK 3 (10 nM) it was 55; on JAK 3 (100 nM), 16. Moreover, in data set [1] (30 mg/kg and 60 mg/kg oral once daily, entire period of the experiment), the “alleviation of rheumatoid arthritis compared with tofacitinib” value was “comparable to or higher than 40 mg/kg of tofacitinib”. The “average rheumatoid arthritis score compared with tofacitinib” value in data set [1] (30 mg/kg oral once daily, FIG. 6) is on record as “comparable to that of the group administered with 40 mg/kg of tofacitinib”. The “rheumatoid arthritis-alleviating efficacy (arthritis score)” value is recorded as “no statistically significant alleviating efficacy was observed” in data set [1] (30 mg/kg oral once daily, day 42 to day 47 after disease induction, FIG. 6); “statistically significant alleviating efficacy was observed again” in data set [1] (30 mg/kg oral once daily, day 49 to the end of the experiment (p<0.05), FIG. 6); “Alleviating efficacy was observed” in data set [1] (30 mg/kg oral once daily, from day 35 after disease induction (p<0.05), FIG. 6). For the same molecule, the “rheumatoid arthritis-alleviating efficacy compared with tofacitinib” value in data set [1] (60 mg/kg oral once daily, from day 33 after disease induction (p<0.01) to the end, FIG. 6) is “comparable to or higher than that of the group administered with 40 mg/kg of tofacitinib”. Further, the “JAK 1 Activity” value worked out at 101 on JAK 1 (0.1 nM), 102 on JAK 1 (1 nM), 45 at JAK 1 (10 nM) and 7 on JAK 1 (100 nM). Moreover, the hematological toxicity responses entry in data set [2] is “No hematological toxicity responses were observed”.

The record behind these values is patent EP4741395A1, “NOVEL COMPOUND SENSITIVE TO NITROGEN MONOXIDE AND PHARMACEUTICAL COMPOSITION COMPRISING SAME” (Omniamed Co. Ltd, priority 2023, dated 2025).
